EC50 data for 26 molecules are collected here from patent US20100160369A1, “S1P1 Agonists and Methods of Making And Using” (EXELIXIS, INC., priority 2008, published 2010).

The term EC50 denotes the concentration needed to bring the measured effect to its halfway point.

In test [1] the target is T1, S1P1 (Homo sapiens, UniProt P21453). Nature of the test: CNG cAMP Assay (Assay 1). As to conditions: read-out: Assay 1 EC50. The arrangement: host or cells: HEK293 cells expressing the CNG channel. In kind it is cell-based. The essentials:
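cAMP-gated CNG membrane-potential read-out (350/590 nm, T90/T0 ratio) in S1P1/CNG HEK293 cells after 90 min with compound plus NECA 500 nM, S1P 10 nM (EC95), Ro 20-1724 25 μM. Ten 3-fold points from 10 μM, 1.8% DMSO; percent activity vs NECA-only control gives EC50.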
Target sequence in this assay (P21453 whole entry): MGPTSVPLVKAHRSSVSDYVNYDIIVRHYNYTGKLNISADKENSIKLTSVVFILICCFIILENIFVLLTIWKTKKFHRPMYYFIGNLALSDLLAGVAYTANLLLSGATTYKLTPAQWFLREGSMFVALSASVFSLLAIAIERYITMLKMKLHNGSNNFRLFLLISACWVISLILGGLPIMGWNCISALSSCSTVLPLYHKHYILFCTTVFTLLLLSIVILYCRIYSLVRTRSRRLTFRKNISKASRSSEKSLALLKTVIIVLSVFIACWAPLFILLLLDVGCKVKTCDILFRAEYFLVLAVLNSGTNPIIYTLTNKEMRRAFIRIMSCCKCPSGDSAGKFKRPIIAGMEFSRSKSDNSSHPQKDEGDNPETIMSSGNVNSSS

Test [2] addresses T1, S1P1. Nature of the test: Tango β-arrestin Recruitment Assay in HEK293 cells (Assay 2a). In kind it is cell-based. The arrangement: linker with TEV protease (N1a) cleavage site (C); host or cells: HEK293, transiently transfected. The settings on record: Tango β-arrestin Recruitment Assay, read-out: Assay 2a EC50. From the text: For the Tango™ β-arrestin recruitment assay, the cytoplasmic C-terminus of S1P1 is tethered to the tTA transcriptional activator with a linker that contains a cleavage site for the N1a protease from tobacco etch virus (TEV protease). The C-terminus of the human β-arrestin2 protein is fused to TEV protease. Binding of an agonist recruits the β-arrestin-TEV fusion protein to the receptor resulting in cleavage of the linker and release of tTA to enter the nucleus and subsequently activate a tTA-dependent luciferase reporter gene.
Frozen HEK293 cells transiently transfected with receptor cDNAs for S1P1 (Invitrogen) were thawed and suspended in 10 mL of Pro293a-CDM culture medium (Invitrogen) supplemented with 4 mM L-Glutamine (Invitrogen), 1× Pen/Strep (100 units/mL penicillin and 100 μg/mL streptomycin, Invitrogen) and 0.1% fatty acid free BSA (Sigma-Aldrich). Cells were added to the wells of a 384-well white opaque bottom assay plate (PerkinElmer) at 3,000-6,000 cells per well and the plate was incubated for approximately 4 h in a 37° C. incubator. Test compounds were tested at maximum concentrations of 10 μM for the agonist assays. Compounds were diluted in DMSO (10 concentration points, 3-fold each) and added to the assay plate at a 1% final DMSO concentration. For each compound, there were duplicate assay plates and each assay plate had duplicate wells per concentration point. The plate was incubated at 37° C. for 30 min. The efficacy control was 5 μM S1P (Avanti). Following agonist addition, the assay plates were incubated in a 37° C. incubator for 16-18 h. Luciferase assay reagent was added and luminescence measured in an EnVision plate reader (PerkinElmer). To determine agonist activity, percent activity was calculated as [(test compound−background)/(positive control−background)* 100], where background is the luminescence of the DMSO alone control and the positive control is the luminescence from cells incubated with the efficacy control 5 μM S1P. The percent activities were plotted against compound concentration to determine EC50 using XLFit (IDBS).
Assay 1 is the CNG cAMP Assay as described in Biological Example 1. Assay 2a and 2b are the Tango™ β-arrestin Recruitment Assay in HEK293 and U2OS cells, respectively, as described in Biological Example 2. Assay 3a is the hS1P1R GTPγS Binding Assay as described in Biological Example 3. Assay 3b is the GTP-Eu Binding Assay as described in Biological Example 3. EC50's were measured unless otherwise noted. […] In the table, “nt” means the Compound was not tested and “no” means the compound was tested but had no measurable activity under the assay conditions employed.
Target sequence in this assay (P21453 whole entry): as above
Target sequence in this assay (P32121 whole entry partner): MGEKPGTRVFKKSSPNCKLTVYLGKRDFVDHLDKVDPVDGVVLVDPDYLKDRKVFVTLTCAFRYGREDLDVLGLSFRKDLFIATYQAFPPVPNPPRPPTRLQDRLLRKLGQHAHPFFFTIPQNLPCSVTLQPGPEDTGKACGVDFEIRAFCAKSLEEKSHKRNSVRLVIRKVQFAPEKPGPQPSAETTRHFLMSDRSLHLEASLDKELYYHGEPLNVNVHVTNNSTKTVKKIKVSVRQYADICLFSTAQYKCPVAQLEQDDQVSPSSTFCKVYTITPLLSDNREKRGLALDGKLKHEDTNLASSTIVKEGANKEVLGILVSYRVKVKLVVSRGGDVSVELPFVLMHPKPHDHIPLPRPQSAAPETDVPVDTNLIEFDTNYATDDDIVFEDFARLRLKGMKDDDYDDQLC
A general note: Recruitment of arrestin is a read-out of receptor activation apart from second messengers.

The structures appear in SMILES notation.

Regarding `O=C(O)/C=C/c1ccc(-c2noc(-c3cn4cc(C(F)(F)F)cc(Cl)c4n3)n2)c(Cl)c1` [Entry 3], the EC50 was no more than 100 nM in test [1] and 100 to 500 nM in test [2]. The like results for `O=C(O)CCc1ccc(-c2noc(-c3cn4cc(C(F)(F)F)cc(Cl)c4n3)n2)c(F)c1` [Entry 19] were, in that order, no more than 100 nM and 100 to 500 nM. The like results for `NC(=O)CCc1ccc(-c2noc(-c3cn4cc(C(F)(F)F)cc(Cl)c4n3)n2)c(Cl)c1` [Entry 20] were, in that order, no more than 100 nM and no more than 100 nM. As to `Cc1cc(Br)c2nc(-c3nc(-c4cc(F)c(CCC(=O)O)cc4Cl)no3)cn2c1` [Entry 25], the EC50 in test [1] and in test [2] was no more than 100 nM in each case. Turning to `Cc1cc(Cl)c2nc(-c3nc(-c4cc(F)c(CCC(=O)O)cc4Cl)no3)cn2c1` [Entry 28], the EC50 in test [1] and in test [2] was no more than 100 nM in each case. With `O=C(O)CCc1cc(Cl)c(-c2noc(-c3cn4cc(I)ccc4n3)n2)cc1F` [Entry 31], the EC50 in test [1] and in test [2] was no more than 100 nM throughout.

Consider `O=C(O)CCc1cc(Cl)c(-c2noc(-c3cn4cc([N+](=O)[O-])cc(Cl)c4n3)n2)cc1F` [Entry 36], for which the EC50 in test [1] is no more than 100 nM; in test [2], 100 to 500 nM.

For `N#Cc1cc(Br)c2nc(-c3nc(-c4cc(F)c(CCC(=O)O)cc4Cl)no3)cn2c1` [Entry 47], the 50% effective concentration (EC50) in test [1] is no more than 100 nM; in test [2], 100 to 500 nM. With `O=C(O)CCc1cc(Cl)c(-c2noc(-c3cn4cc(Br)cc(Cl)c4n3)n2)cc1F` [Entry 64], the EC50 in test [1] and in test [2] was no more than 100 nM in each case. Regarding `O=C(O)CN1CCC(Oc2cc(Cl)c(-c3noc(-c4cn5cc(C(F)(F)F)cc(Cl)c5n4)n3)cc2F)C1` (centres unmarked) [Example 92, {3-[(5-chloro-4-{5-[8-chloro-6-(trifluoromethyl)imidazo[1,2-a]pyridin-2-yl]-1,2,4-oxadiazol-3-yl}-2-fluorophenyl)oxy]pyrrolidin-1-yl}acetic acid], the EC50 in test [1] and in test [2] was no more than 100 nM throughout. Take `O=C(O)[C@H]1C[C@H](Oc2ccc(-c3noc(-c4cn5cc(C(F)(F)F)cc(Cl)c5n4)n3)c(Cl)c2)CN1` [Example 97, (4S)-4-[(3-chloro-4-{5-[8-chloro-6-(trifluoromethyl)imidazo[1,2-a]pyridin-2-yl]-1,2,4-oxadiazol-3-yl}phenyl)oxy]-D-proline]: the EC50 in test [1] and in test [2] was no more than 100 nM throughout. With `Cc1cc(NS(C)(=O)=O)ccc1-c1noc(-c2cn3cc(C(F)(F)F)cc(Cl)c3n2)n1` [Example 98, N-(4-{5-[8-chloro-6-(trifluoromethyl)imidazo[1,2-a]pyridin-2-yl]-1,2,4-oxadiazol-3-yl}-3-methylphenyl)methanesulfonamide], the EC50 in test [1] and in test [2] was no more than 100 nM throughout. Regarding `CS(=O)(=O)NCc1ccc(-c2noc(-c3cn4cc(C(F)(F)F)cc(Cl)c4n3)n2)c(Cl)c1` [Example 136, N-[(3-chloro-4-{5-[8-chloro-6-(trifluoromethyl)imidazo[1,2-a]pyridin-2-yl]-1,2,4-oxadiazol-3-yl}phenyl)methyl]methanesulfonamide], the EC50 in test [1] and in test [2] was no more than 100 nM in each case. On to `Fc1cccc(F)c1-c1noc(-c2cn3cc(C(F)(F)F)cc(Cl)c3n2)n1` [Example 141, 8-chloro-2-[3-(2,6-difluorophenyl)-1,2,4-oxadiazol-5-yl]-6-(trifluoromethyl)imidazo[1,2-a]pyridine], for which the EC50 in test [1] lay in the range of 500 to 1000 nM; in test [2], 100 to 500 nM. The like results for `Fc1ccccc1-c1noc(-c2cn3cc(C(F)(F)F)cc(Cl)c3n2)n1` [Example 142, 8-chloro-2-[3-(2-fluorophenyl)-1,2,4-oxadiazol-5-yl]-6-(trifluoromethyl)imidazo[1,2-a]pyridine] were, in that order, 100 to 500 nM and 500 to 1000 nM. Consider `Cc1ccccc1-c1noc(-c2cn3cc(C(F)(F)F)cc(Cl)c3n2)n1` [Example 150, 8-chloro-2-[3-(2-methylphenyl)-1,2,4-oxadiazol-5-yl]-6-(trifluoromethyl)imidazo[1,2-a]pyridine], for which the values for the EC50 in test [1] and in test [2] were no more than 100 nM and 100 to 500 nM, respectively. The like results for `FC(F)(F)c1cc(Br)c2nc(-c3nc(-c4ccccc4Cl)no3)cn2c1` [Example 159, 8-bromo-2-[3-(2-chlorophenyl)-1,2,4-oxadiazol-5-yl]-6-(trifluoromethyl)imidazo[1,2-a]pyridine] were, in that order, no more than 100 nM and 100 to 500 nM. The like results for `Cc1cc(C#N)c2nc(-c3nc(-c4cc(F)c(CCC(=O)O)cc4Cl)no3)cn2c1` [Example 160, 3-{5-chloro-4-[5-(8-cyano-6-methylimidazo[1,2-a]pyridin-2-yl)-1,2,4-oxadiazol-3-yl]-2-fluorophenyl}propanoic acid] were, in that order, no more than 100 nM and 100 to 500 nM.

`CC(Cc1ccc(-c2noc(-c3cn4cc(C(F)(F)F)cc(Cl)c4n3)n2)c(Cl)c1)C(=O)O` (centres unmarked) [Example 171, 3-(3-chloro-4-{5-[8-chloro-6-(trifluoromethyl)imidazo[1,2-a]pyridin-2-yl]-1,2,4-oxadiazol-3-yl}phenyl)-2-methylpropanoic acid]: the EC50 in test [1] is no more than 100 nM; in test [2], 100 to 500 nM.

Regarding `Cc1cc(CC(C)C(=O)O)ccc1-c1noc(-c2cn3cc(C(F)(F)F)cc(Br)c3n2)n1` (centres unmarked) [Example 173, 3-(4-{5-[8-bromo-6-(trifluoromethyl)imidazo[1,2-a]pyridin-2-yl]-1,2,4-oxadiazol-3-yl}-3-methylphenyl)-2-methylpropanoic acid], the figures for the 50% effective concentration (EC50) in test [1] and in test [2] were no more than 100 nM and 100 to 500 nM, respectively. The like results for `Cc1cc(CC(C)C(=O)O)ccc1-c1noc(-c2cn3cc(C(F)(F)F)cc(Cl)c3n2)n1` (centres unmarked) [Example 180, 3-(4-{5-[8-chloro-6-(trifluoromethyl)imidazo[1,2-a]pyridin-2-yl]-1,2,4-oxadiazol-3-yl}-3-methylphenyl)-2-methylpropanoic acid] were, in that order, no more than 100 nM and 100 to 500 nM. Regarding `Cc1cc(C(C)CC(=O)O)ccc1-c1noc(-c2cn3cc(C(F)(F)F)cc(Cl)c3n2)n1` (centres unmarked) [Example 181, 3-(4-{5-[8-chloro-6-(trifluoromethyl)imidazo[1,2-a]pyridin-2-yl]-1,2,4-oxadiazol-3-yl}-3-methylphenyl)butanoic acid], the concentration for a half-maximal effect (EC50) is no more than 100 nM in test [1] and 100 to 500 nM in test [2]. The like results for `Oc1cc(Cl)c(-c2noc(-c3cn4cc(C(F)(F)F)cc(Cl)c4n3)n2)cc1Cl` [Example 191, 2,5-dichloro-4-{5-[8-chloro-6-(trifluoromethyl)imidazo[1,2-a]pyridin-2-yl]-1,2,4-oxadiazol-3-yl}phenol] were, in that order, no more than 100 nM and no more than 100 nM. The like results for `CC(Cc1cc(Cl)c(-c2noc(-c3cn4cc(C(F)(F)F)cc(Cl)c4n3)n2)cc1F)C(=O)O` (centres unmarked) [Example 203, 3-(5-chloro-4-{5-[8-chloro-6-(trifluoromethyl)imidazo[1,2-a]pyridin-2-yl]-1,2,4-oxadiazol-3-yl}-2-fluorophenyl)-2-methylpropanoic acid] were, in that order, no more than 100 nM and 100 to 500 nM. For `CC(=O)OCCOc1c(Cl)cc(-c2noc(-c3cn4cc(C(F)(F)F)cc(Cl)c4n3)n2)cc1Cl` [Example 279, 2-[(2,6-dichloro-4-{5-[8-chloro-6-(trifluoromethyl)imidazo[1,2-a]pyridin-2-yl]-1,2,4-oxadiazol-3-yl}phenyl)oxy]ethyl acetate], the EC50 in test [2] is 100 to 500 nM. The same measure, in the same setting: the value for `OCCOc1c(Cl)cc(-c2noc(-c3cn4cc(C(F)(F)F)cc(Cl)c4n3)n2)cc1Cl` [Example 280, 2-[(2,6-dichloro-4-{5-[8-chloro-6-(trifluoromethyl)imidazo[1,2-a]pyridin-2-yl]-1,2,4-oxadiazol-3-yl}phenyl)oxy]ethanol] was no more than 100 nM.
